From patent US9085606B2, “Beta amino acid derivatives as integrin antagonists” (Saint Louis University, priority 2012, dated 2015)

What was measured:
[1] = biological target: T1, Recombinant human integrin αvβ6 (Homo sapiens, UniProt P06756+P18564); assay: Solid Phase Receptor Assay for αvβ6 Function; details: binding to LAP-coated plate; read-out: αvβ6 SPRA IC50
T1 construct: purchased R&D Systems 3817-AV
Experimental: Solid Phase Receptor Assay for αvβ6 Function.
(§1) Wells were washed 3 times with 150 μL TBS+, and 150 μL of blocking buffer (TBS+ with 1% bovine serum albumin, Sigma A7906) were added. The plate was incubated for 1 hr at 37° C., and then washed 3× with TBS+ buffer. […] Compounds were diluted 1:100 into the integrin solution and then 50 μL added to empty wells of the washed LAP-coated plate according to a standard template with each sample repeated in triplicate. After incubation for two hours at room temperature, the plate was washed 3× with 150 μL of TBS+ buffer. To each well, 50 μL of biotinylated anti-αv antibody (R&D Systems, BAF1219) at 0.5 μg/mL in TBS+/0.1% BSA were added and the plate was covered and incubated for 1 hr at room temperature. After washing the plate 3× with 150 μL of TBS+ buffer, 50 μL of streptavidin-conjugated horseradish peroxidase (R&D Systems, DY998) diluted in TBS+ blocking buffer were added to the wells and the plate incubated for 20 min at room temperature. The plate was washed 3× with TBS+ buffer followed by 50 μL of TMB substrate (Sigma T4444) added to each well and the plate incubated for 20 min at room temperature. The reaction was optionally stopped with 25 μL of Stop Solution (Sigma S5689). Plates were read by colorimetric detection at 650 nm wavelength using a Tecan Safire II plate reader.

[2] = biological target: T2, Recombinant human integrin αvβ3 (Homo sapiens, UniProt P05106+P06756); assay: Solid Phase Receptor Assay for αvβ3 Function; details: binding to vitronectin-coated plate; read-out: αvβ3 SPRA IC50
T2 construct: purchased R&D Systems 3050-AV
T2 sequence (P06756 31-992 limits assumed): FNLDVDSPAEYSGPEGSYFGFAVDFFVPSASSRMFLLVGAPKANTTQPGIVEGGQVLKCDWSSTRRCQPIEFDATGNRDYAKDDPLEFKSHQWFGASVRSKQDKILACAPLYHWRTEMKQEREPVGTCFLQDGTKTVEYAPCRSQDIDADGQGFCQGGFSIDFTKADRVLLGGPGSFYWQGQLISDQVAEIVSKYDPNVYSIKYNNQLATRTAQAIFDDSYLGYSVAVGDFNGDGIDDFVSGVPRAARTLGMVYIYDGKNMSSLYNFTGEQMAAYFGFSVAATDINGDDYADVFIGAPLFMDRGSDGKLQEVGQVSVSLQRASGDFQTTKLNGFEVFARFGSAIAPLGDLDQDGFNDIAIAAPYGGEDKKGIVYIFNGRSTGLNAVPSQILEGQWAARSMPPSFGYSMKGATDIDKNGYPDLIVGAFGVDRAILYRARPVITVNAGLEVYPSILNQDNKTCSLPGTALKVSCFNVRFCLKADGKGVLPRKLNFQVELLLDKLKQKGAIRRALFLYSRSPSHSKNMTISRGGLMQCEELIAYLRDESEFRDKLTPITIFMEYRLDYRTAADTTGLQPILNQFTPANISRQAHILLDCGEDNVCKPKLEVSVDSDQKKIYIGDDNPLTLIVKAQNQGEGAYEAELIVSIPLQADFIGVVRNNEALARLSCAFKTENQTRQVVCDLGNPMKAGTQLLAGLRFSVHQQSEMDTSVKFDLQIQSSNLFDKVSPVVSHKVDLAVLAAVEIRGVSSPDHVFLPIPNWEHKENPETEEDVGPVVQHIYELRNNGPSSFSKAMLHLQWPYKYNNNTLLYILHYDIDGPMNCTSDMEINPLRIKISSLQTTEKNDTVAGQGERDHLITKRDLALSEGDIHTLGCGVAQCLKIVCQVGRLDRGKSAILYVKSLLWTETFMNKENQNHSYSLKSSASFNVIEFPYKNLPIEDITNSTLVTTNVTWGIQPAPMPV
T2 sequence (P05106 27-718 limits assumed): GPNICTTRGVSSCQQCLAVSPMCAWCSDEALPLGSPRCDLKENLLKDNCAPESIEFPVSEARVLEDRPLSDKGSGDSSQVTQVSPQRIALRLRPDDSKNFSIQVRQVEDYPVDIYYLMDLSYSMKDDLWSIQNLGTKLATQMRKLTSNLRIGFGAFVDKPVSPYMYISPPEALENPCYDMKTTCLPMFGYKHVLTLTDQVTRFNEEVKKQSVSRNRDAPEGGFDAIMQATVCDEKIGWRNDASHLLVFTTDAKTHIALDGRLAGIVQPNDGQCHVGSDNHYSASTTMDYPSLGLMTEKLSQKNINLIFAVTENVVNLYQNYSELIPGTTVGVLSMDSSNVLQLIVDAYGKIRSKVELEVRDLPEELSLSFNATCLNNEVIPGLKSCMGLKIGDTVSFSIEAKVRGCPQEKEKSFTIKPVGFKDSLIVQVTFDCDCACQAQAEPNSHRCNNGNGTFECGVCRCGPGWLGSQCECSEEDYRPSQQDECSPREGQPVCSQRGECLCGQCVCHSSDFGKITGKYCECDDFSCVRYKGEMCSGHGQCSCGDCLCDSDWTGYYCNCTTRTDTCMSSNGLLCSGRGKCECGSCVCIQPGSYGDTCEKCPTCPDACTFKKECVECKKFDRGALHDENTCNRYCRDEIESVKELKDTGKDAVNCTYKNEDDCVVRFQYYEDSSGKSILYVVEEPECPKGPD
Experimental: Solid Phase Receptor Assay for αvβ3 Function.
Wells were washed 3 times with 150 μL TBS+ and 150 μL of blocking buffer (TBS+ with 1% bovine serum albumin, Sigma A7906) were added. The plate was incubated for 1 hr at 37° C. and then washed 3× with TBS+ buffer. […] Compounds were diluted 1:100 into the integrin solution and then 50 μL added to empty wells of the washed vitronectin-coated plate according to a standard template with each sample repeated in triplicate. After incubation for two hours at room temperature, the plate was washed 3× with 150 μL of TBS+ buffer. To each well, 50 μL of biotinylated anti-αv antibody (R&D Systems, BAF1219) at 0.5 μg/mL in TBS+/0.1% BSA were added and the plate covered and incubated for 1 hr at room temperature. After washing the plate 3× with 150 μL of TBS+ buffer, 50 μL of streptavidin-conjugated horseradish peroxidase (R&D Systems, DY998) diluted in TBS+ blocking buffer were added to the wells and the plate incubated for 20 min at room temperature. The plate was washed 3× with TBS+ buffer followed by 50 μL of TMB substrate (Sigma, T4444) added to each well and the plate was incubated for 20 min at room temperature. The reaction was optionally stopped with 25 μL of Stop Solution (Sigma, S5689). Plates were read by colorimetric detection at 650 nm wavelength using a Tecan S afire II plate reader.

[3] = biological target: T3, Recombinant human integrin αvβ5 (Homo sapiens, UniProt P06756+P18084); assay: Solid Phase Receptor Assay for αvβ5 Function; details: binding to vitronectin-coated plate; read-out: αvβ5 SPRA IC50
T3 construct: purchased R&D Systems 2528-AV
T3 sequence (P06756 31-992 limits assumed): as the sequence (P06756 31-992 limits assumed) above
T3 sequence (P18084 24-719 limits assumed): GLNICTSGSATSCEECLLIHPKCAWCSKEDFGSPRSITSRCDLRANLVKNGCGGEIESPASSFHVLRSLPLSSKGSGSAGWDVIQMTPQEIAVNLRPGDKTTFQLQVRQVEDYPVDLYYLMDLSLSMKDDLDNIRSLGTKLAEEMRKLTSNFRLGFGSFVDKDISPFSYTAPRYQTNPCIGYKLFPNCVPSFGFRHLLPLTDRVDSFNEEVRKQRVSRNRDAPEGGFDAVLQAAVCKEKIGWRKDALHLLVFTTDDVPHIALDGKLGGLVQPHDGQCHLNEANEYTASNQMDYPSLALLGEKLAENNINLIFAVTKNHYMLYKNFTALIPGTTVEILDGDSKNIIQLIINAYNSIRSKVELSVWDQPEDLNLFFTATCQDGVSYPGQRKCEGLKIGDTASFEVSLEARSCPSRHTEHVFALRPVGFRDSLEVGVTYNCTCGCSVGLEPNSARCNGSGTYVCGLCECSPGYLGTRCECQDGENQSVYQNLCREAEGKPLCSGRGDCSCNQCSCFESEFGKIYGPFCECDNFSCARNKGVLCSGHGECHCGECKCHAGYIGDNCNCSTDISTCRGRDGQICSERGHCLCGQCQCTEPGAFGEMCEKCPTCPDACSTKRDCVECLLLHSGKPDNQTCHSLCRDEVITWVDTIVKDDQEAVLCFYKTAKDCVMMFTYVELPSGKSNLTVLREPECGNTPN
Experimental: Solid Phase Receptor Assay for αvβ5 Function.
as §1, with “150 μL TBS+ and 150” for “150 μL TBS+, and 150”, “at 37° C. and then” for “at 37° C., and then”, “the washed vitronectin-coated plate according” for “the washed LAP-coated plate according”, “TBS+/0.1% BSA at 0.5 μg/mL were added” for “TBS+/0.1% BSA were added”, “the plate covered and” for “the plate was covered and”, “peroxidase (R&D Systems DY998) diluted” for “peroxidase (R&D Systems, DY998) diluted”

[4] = biological target: T4, Recombinant human integrin α5β1 (Homo sapiens, UniProt P05556+P08648); assay: Solid Phase Receptor Assay for α5β1 Function; details: binding to fibronectin-coated plate; read-out: α5β1 SPRA IC50
T4 construct: purchased R&D Systems 3230-A5
T4 sequence (P08648 42-995 limits assumed): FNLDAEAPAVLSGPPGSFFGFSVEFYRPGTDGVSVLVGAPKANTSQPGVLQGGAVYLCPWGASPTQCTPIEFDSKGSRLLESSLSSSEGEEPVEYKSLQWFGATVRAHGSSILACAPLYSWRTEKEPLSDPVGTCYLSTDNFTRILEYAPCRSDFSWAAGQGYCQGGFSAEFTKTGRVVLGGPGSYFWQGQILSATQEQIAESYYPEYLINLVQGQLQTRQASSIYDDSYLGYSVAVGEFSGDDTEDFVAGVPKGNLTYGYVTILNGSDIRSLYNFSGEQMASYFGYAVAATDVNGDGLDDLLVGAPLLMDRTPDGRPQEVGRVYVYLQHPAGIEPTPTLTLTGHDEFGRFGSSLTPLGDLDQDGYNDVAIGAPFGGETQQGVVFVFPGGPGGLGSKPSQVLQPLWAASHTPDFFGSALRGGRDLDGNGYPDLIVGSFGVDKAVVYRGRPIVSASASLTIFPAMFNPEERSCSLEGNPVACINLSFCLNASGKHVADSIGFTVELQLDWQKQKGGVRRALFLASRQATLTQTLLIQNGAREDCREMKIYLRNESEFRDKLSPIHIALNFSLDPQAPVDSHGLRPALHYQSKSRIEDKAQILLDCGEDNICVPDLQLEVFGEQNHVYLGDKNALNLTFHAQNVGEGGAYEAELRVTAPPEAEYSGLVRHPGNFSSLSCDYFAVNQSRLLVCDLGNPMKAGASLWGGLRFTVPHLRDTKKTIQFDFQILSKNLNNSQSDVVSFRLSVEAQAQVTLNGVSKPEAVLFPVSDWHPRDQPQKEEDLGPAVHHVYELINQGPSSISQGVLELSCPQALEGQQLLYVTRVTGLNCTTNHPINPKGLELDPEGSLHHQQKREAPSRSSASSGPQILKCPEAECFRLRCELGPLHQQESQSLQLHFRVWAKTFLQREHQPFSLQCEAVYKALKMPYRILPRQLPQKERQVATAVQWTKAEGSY
T4 sequence (P05556 21-728 limits assumed): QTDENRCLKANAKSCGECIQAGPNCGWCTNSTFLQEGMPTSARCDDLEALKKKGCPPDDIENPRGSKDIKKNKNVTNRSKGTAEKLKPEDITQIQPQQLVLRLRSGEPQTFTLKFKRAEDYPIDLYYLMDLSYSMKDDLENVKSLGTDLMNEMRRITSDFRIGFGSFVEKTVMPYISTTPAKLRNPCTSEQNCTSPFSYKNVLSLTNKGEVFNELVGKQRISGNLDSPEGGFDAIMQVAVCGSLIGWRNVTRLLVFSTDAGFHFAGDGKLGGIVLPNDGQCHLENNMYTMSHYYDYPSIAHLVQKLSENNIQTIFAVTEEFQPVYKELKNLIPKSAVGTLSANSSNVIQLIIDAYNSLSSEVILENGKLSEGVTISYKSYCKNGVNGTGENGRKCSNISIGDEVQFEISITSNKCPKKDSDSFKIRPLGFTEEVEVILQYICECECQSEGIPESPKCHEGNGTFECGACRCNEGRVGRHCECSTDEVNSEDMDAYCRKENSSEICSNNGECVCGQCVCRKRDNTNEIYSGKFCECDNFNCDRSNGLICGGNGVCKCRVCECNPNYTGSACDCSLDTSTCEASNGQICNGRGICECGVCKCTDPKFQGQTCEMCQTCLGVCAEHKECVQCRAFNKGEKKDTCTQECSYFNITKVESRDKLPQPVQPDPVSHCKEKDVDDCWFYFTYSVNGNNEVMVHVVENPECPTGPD
Experimental: Solid Phase Receptor Assay for α5β1 Function.
Wells were washed 3 times with 150 μL TBS+ and 150 μl of blocking buffer (TBS+ with 1% bovine serum albumin, Sigma A7906) were added. The plate was incubated for 1 hr at 37° C. and then washed 3× with TBS+ buffer. […] Compounds were diluted 1:100 into the integrin solution and then 50 μL added to empty wells of the washed fibronectin-coated plate according to a standard template with each sample repeated in triplicate. After incubation for two hours at room temperature, the plate was washed 3× with 150 μL of TBS+ buffer. To each well, 50 μL of biotinylated anti-α5 antibody (R&D Systems, BAF1864) at 0.5 ug/mL in TBS+/0.1% BSA were added and the plate covered and incubated for 1 hr at room temperature. After washing the plate 3× with 150 μL of TBS+ buffer, 50 μL of streptavidin-conjugated horseradish peroxidase (R&D Systems, DY998) diluted in TBS+ blocking buffer were added to the wells and the plate incubated for 20 min at room temperature. The plate was washed 3× with TBS+ buffer followed by 50 μL of room temperature TMB substrate (Sigma, T444) added to each well and the plate incubated for 20 min at room temperature. The reaction was optionally stopped with 25 μL of Stop Solution (Sigma S5689). Plates were read by colorimetric detection at 650 nm wavelength using a Tecan Safire II plate reader.

T1 sequence (P06756 31-992 limits assumed): as the sequence (P06756 31-992 limits assumed) above
T1 sequence (P18564 22-707 limits assumed): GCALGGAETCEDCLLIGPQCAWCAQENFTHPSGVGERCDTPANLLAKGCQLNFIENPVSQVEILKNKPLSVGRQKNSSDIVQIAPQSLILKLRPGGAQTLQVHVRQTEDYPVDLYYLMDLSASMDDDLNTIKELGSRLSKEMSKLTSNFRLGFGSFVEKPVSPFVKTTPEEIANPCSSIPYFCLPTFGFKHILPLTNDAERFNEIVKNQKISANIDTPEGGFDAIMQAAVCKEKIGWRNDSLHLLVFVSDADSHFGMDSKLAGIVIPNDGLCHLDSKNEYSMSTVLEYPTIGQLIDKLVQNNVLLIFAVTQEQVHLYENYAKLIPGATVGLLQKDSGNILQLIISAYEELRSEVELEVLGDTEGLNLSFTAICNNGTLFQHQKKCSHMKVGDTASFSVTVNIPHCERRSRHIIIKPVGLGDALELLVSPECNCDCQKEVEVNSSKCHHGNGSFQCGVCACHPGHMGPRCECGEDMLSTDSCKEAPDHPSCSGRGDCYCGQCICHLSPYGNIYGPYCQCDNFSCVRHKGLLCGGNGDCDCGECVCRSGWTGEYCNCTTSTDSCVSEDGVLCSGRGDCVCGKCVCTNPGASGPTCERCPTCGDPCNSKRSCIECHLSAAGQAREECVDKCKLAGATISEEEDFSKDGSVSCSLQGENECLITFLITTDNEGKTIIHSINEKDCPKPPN

SMILES | IC50 [1] [nM] | IC50 [2] [nM] | IC50 [3] [nM] | IC50 [4] [nM]
CC(C)(C)c1cc(Br)cc([C@H](CC(=O)O)NC(=O)CNC(=O)c2cc(O)cc(NC3=NCCN3)c2)c1 [Example 9, (S)-3-(3-bromo-5-(tert-butyl)phenyl)-3-(2-(3-((4,5-dihydro-1H-imidazol-2-yl)amino)-5-hydroxybenzamido)acetamido)propanoic acid] | 0.5 | 2.9 | 1.2 | 0.5
CC(C)(C#N)c1cc(Br)cc([C@H](CC(=O)O)NC(=O)CNC(=O)c2cc(O)cc(NC3=NCC(O)CN3)c2)c1 (stereo partly drawn) [Example 11, (3S)-3-(3-bromo-5-(2-cyanopropan-2-yl)phenyl)-3-(2-(3-hydroxy-5-((5-hydroxy-1,4,5,6-tetrahydropyrimidin-2-yl)amino)benzamido)acetamido)propanoic acid] | 0.5 | 3.4 | 0.7 | 0.3
CC(C)(C)c1cc(-c2cccnc2)cc([C@H](CC(=O)O)NC(=O)CNC(=O)c2cc(O)cc(NC3=NCC(O)CN3)c2)c1 (stereo partly drawn) [Example 18, (3S)-3-(3-(tert-butyl)-5-(pyridin-3-yl)phenyl)-3-(2-(3-hydroxy-5-((5-hydroxy-1,4,5,6-tetrahydropyrimidin-2-yl)amino)benzamido)acetamido)propanoic acid] | 0.6 | 14.5 | 21 | 0.4
CC(C)(C)c1cc(Br)cc([C@H](CC(=O)O)NC(=O)CNC(=O)c2cncc(NC3=NCC(O)CN3)c2)c1 (stereo partly drawn) [Example 8, (3S)-3-(3-bromo-5-(tert-butyl)phenyl)-3-(2-(5-((5-hydroxy-1,4,5,6-tetrahydropyrimidin-2-yl)amino)nicotinamido)acetamido)propanoic acid] | 0.5 | 1.5 | 0.5 | 0.4
CC(C)(C)c1cc(Br)cc([C@H](CC(=O)O)NC(=O)CNC(=O)c2cc(O)cc(NC3=NCC(O)CN3)c2)c1O (stereo partly drawn) [Example 2, (3S)-3-(5-bromo-3-(tert-butyl)-2-hydroxyphenyl)-3-(2-(3-hydroxy-5-((5-hydroxy-1,4,5,6-tetrahydropyrimidin-2-yl)amino)benzamido)acetamido)propanoic acid] | 0.7 | 1.8 | 1 | 0.5
CC(C)(C)c1cc([C@H](CC(=O)O)NC(=O)CNC(=O)c2cncc(NC(=N)N)c2)cc(C(C)(C)C)c1 [Example 10, (S)-3-(3,5-di-tert-butylphenyl)-3-(2-(5-guanidinonicotinamido)acetamido)propanoic acid] | 1.2 | 172 | 71 | 0.5
COCC1(c2cc(Cl)cc([C@H](CC(=O)O)NC(=O)CNC(=O)c3cc(O)cc(NC4=NCC(O)CN4)c3)c2)CCOCC1 (stereo partly drawn) [Example 16, (3S)-3-(3-chloro-5-(4-(Methoxymethyl)tetrahydro-2H-pyran-4-yl)phenyl)-3-(2-(3-hydroxy-5-((5-hydroxy-1,4,5,6-tetrahydropyrimidin-2-yl)amino)benzamido)acetamido)propanoic acid] | 0.5 | 1.7 | 0.6 | 0.5
